Assay results: patent US11236046B2, “Substituted heterocyclic sulfonamide compounds useful as TRPA1 modulators” (Genentech, Inc., priority 2013, dated 2022)

Each compound was assayed against human TRPA1 (Homo sapiens (Human), UniProt O75762) (assay: FLIPR Tetra calcium influx assay, block of cinnamaldehyde-induced calcium influx in CHO cells expressing TRPA1 (human)). Details: 20 min compound incubation, 75 uM cinnamaldehyde (~EC80), Hill coefficient fixed to 1.5, read-out: hTRPA1 AUC IC50.
Chain of human TRPA1 (O75762 whole entry): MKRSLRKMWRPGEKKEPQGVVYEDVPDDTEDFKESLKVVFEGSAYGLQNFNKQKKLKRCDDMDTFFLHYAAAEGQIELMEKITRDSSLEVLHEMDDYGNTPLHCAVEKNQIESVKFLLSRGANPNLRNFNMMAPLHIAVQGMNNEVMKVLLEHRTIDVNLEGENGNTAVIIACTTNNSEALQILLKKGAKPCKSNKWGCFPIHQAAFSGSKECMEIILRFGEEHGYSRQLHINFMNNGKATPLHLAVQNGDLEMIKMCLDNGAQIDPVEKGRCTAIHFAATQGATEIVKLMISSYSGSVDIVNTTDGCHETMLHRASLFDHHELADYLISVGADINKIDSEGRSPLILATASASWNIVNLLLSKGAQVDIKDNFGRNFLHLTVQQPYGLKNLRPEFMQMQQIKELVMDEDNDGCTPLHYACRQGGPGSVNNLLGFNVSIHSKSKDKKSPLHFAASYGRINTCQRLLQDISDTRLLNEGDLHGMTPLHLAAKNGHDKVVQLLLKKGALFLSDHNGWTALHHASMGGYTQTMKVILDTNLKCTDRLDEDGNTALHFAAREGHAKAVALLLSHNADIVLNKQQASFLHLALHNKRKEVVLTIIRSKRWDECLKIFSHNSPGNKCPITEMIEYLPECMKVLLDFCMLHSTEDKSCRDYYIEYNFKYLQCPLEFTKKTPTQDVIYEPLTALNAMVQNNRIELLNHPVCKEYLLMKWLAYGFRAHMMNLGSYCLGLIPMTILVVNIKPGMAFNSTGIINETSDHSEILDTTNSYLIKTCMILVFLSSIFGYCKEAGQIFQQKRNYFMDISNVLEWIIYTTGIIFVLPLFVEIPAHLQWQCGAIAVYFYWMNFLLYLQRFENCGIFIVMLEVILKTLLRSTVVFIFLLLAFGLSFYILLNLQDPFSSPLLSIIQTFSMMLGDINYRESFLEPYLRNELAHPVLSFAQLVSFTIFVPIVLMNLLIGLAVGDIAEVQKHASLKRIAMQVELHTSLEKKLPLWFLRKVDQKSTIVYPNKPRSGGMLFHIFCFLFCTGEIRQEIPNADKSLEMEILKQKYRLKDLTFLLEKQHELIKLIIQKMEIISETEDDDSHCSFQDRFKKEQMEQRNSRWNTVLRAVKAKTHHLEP
Type: cell-based
Description: IC50 Determinations of Exemplified Compounds.
IC50s (effective concentration) of compounds on the human and rat TRPA1 channels were determined using a FLIPR Tetra instrument. CHO cells expressing TRPA1 were plated into 384-well plates, incubated overnight at 37C, and loaded with BD calcium indicator dye for 1 hr at 37° C. followed by 15 minutes. at room temperature. The assay buffer was Hank's Balanced Salt Solution (HBSS) containing 20 mM HEPES (pH readjusted to 7.4) along with 0.02% BSA.
Following dye load and plate cool down, compounds were added to the cells using FLIPR Tetra. Plates were then incubated with compounds for 20 minutes at room temperature prior to adding agonist. Following this incubation, ˜EC80 concentration of cinnamaldehyde (75 uM for human TRPA1 and 45 uM for rat TRPA1) was added to active the channels and block of cinnamaldehyde induced calcium influx was measured.
Fixing the Hill coefficient will generally reduce variability of the IC50 determination. The IC50s were individually examined to make sure the MIN and MAX points were set correctly prior to validation of the results.
For O=C(NCc1cc(-c2ccc(C(F)(F)F)cc2)ncn1)[C@@H]1C[C@H]2COC[C@H]2N1S(=O)(=O)c1ccc(F)cc1 (single isomer, unassigned) [Example 99], the IC50 was 428 nM. O=C(NCc1cc(-c2ccc(C(F)(F)F)cc2)ncn1)[C@@H]1C[C@@H]2COC[C@@H]2N1S(=O)(=O)c1ccc(F)cc1 (single isomer, unassigned) [Example 100] was tested, and the IC50 was 449 nM. Work on C[C@@H]1[C@@H](C(=O)NCc2cc(-c3ccc(C(F)(F)F)nc3)ncn2)N(S(=O)(=O)c2ccc(F)cc2)C[C@@H]1F (single isomer, unassigned) [Example 106] yielded an IC50 of 280 nM. With C[C@@]1(F)C[C@@H](C(=O)NCc2cc(-c3ccc(C(F)(F)F)nc3)ncn2)N(S(=O)(=O)c2ccc(F)cc2)C1 (single isomer, unassigned) [Example 107] the IC50 was 90 nM. With O=C(NCc1cc(-c2ccc(C(F)(F)F)nc2)ncn1)[C@@H]1C[C@]2(CN1S(=O)(=O)c1ccc(F)cc1)CC2(F)F (single isomer, unassigned) [Example 124] the IC50 was 113 nM. C[C@@]1(C(=O)NCc2cc(-c3ccc(C(F)(F)F)cc3)ncn2)C[C@@H](F)CN1S(=O)(=O)c1ccc(F)cc1 (single isomer, unassigned) [Example 138] gave an IC50 of 25 nM. C[C@@]1(C(=O)NCc2cc(-c3ccc(C(F)(F)F)nc3)ncn2)C[C@@H](F)CN1S(=O)(=O)c1ccc(F)cc1 (single isomer, unassigned) [Example 142] gave an IC50 of 92 nM. O=C(NCc1cc([C@H]2CC[C@H](C(F)(F)F)CC2)ncn1)[C@@H]1C[C@@H](F)CN1S(=O)(=O)c1ccc(F)cc1 (single isomer, unassigned) [Example 149] was tested, and the IC50 was 34 nM. In the case of N#Cc1ccc(-c2cnc(C(F)(F)F)nc2)cc1CNC(=O)[C@@H]1[C@@H](F)CCN1S(=O)(=O)c1ccc(F)cc1 [Example 38, (2R,3S)—N-([2-cyano-5-[2-(trifluoromethyl)pyrimidin-5-yl]phenyl]methyl)-3-fluoro-1-[(4-fluorobenzene)sulfonyl]pyrrolidine-2-carboxamide], the IC50 is reported as 14 nM. C[C@@H]1CC[C@@H](C(=O)NCc2cc(-c3ccc(C(F)(F)F)nc3)ncn2)N1S(=O)(=O)c1ccc(F)cc1 [Example 39, (2S,5R)-1-[(4-fluorobenzene)sulfonyl]-5-methyl-N-([6-[6-(trifluoromethyl)pyridin-3-yl]pyrimidin-4-yl]methyl)pyrrolidine-2-carboxamide] showed an IC50 of 45 nM. For C[C@H]1CC[C@@H](C(=O)NCc2cc(-c3ccc(C(F)(F)F)nc3)ncn2)N1S(=O)(=O)c1ccc(F)cc1 [Example 41, (2S,5S)-1-[(4-fluorobenzene)sulfonyl]-5-methyl-N-([6-[6-(trifluoromethyl)pyridin-3-yl]pyrimidin-4-yl]methyl)pyrrolidine-2-carboxamide], the IC50 was 5 nM. Cc1cc(CNC(=O)[C@@H]2C[C@@H](F)CN2S(=O)(=O)c2ccc(F)cc2)cc(-c2cnc(C(F)(F)F)nc2)n1 [Example 43, (2S,4R)-4-fluoro-1-(4-fluorophenyl)sulfonyl-N-[[2-methyl-6-[2-(trifluoromethyl)pyrimidin-5-yl]-4-pyridyl]methyl]pyrrolidine-2-carboxamide] was tested, and the IC50 was 47 nM. Work on COc1nc(C(F)(F)F)ccc1-c1cc(F)cc(CNC(=O)[C@@H]2C[C@@H](F)CN2S(=O)(=O)c2ccc(F)cc2)c1 [Example 44, (2S,4R)-4-fluoro-N-([3-fluoro-5-[2-methoxy-6-(trifluoromethyl)pyridin-3-yl]phenyl]methyl)-1-[(4-fluorobenzene)sulfonyl]pyrrolidine-2-carboxamide] yielded an IC50 of 48 nM. For C[C@@]1(F)C[C@@H](C(=O)NCc2cc(F)cc(-c3ccc(C(F)(F)F)nn3)c2)N(S(=O)(=O)c2ccc(F)cc2)C1 [Example 45, (2S,4R)-4-fluoro-1-(4-fluorophenyl)sulfonyl-N-[[3-fluoro-5-[6-(trifluoromethyl)pyridazin-3-yl]phenyl]methyl]-4-methyl-pyrrolidine-2-carboxamide], the IC50 was 24 nM. With C[C@@]1(F)C[C@@H](C(=O)NCc2cc(-c3ccc(OC(F)(F)F)cc3)ncn2)N(S(=O)(=O)c2ccc(F)cc2)C1 [Example 46, (2S,4R)-4-fluoro-1-((4-fluorophenyl)sulfonyl)-4-methyl-N-((6-(4-(trifluoromethoxy)phenyl)pyrimidin-4-yl)methyl)pyrrolidine-2-carboxamide] the IC50 was 20 nM. For C[C@@]1(F)C[C@@H](C(=O)NCc2cc(F)cc(-c3cnc(C(F)(F)F)cn3)c2)N(S(=O)(=O)c2ccc(F)cc2)C1 [Example 47, (2S,4R)-4-fluoro-N-(3-fluoro-5-(5-(trifluoromethyl)pyrazin-2-yl)benzyl)-1-((4-fluorophenyl)sulfonyl)-4-methylpyrrolidine-2-carboxamide], the IC50 was 11 nM. Compound Cc1cc(-c2cnc(C(F)(F)F)nc2)cc(CNC(=O)[C@@H]2C[C@@H](F)CN2S(=O)(=O)c2ccc(F)cc2)n1 [Example 48, (2S,4R)-4-fluoro-1-(4-fluorophenyl)sulfonyl-N-[[6-methyl-4-[2-(trifluoromethyl)pyrimidin-5-yl]-2-pyridyl]methyl]pyrrolidine-2-carboxamide] has an IC50 of 152 nM. Work on O=C(NCc1cc(-c2ccc(C(F)(F)F)cn2)cc(F)n1)[C@@H]1C[C@@H](F)CN1S(=O)(=O)c1ccc(F)cc1 [Example 49, (2S,4R)-4-fluoro-N-([6-fluoro-4-[5-(trifluoromethyl)pyridin-2-yl]pyridin-2-yl]methyl)-1-[(4-fluorobenzene)sulfonyl]pyrrolidine-2-carboxamide] yielded an IC50 of 9 nM. Work on N#Cc1nn(-c2ccc(C(F)(F)F)cc2)cc1CNC(=O)[C@@H]1C[C@@H](F)CN1S(=O)(=O)c1ccc(F)cc1 [Example 50, (2S,4R)—N-([3-cyano-1-[4-(trifluoromethyl)phenyl]-1H-pyrazol-4-yl]methyl)-4-fluoro-1-[(4-fluorobenzene)sulfonyl]pyrrolidine-2-carboxamide] yielded an IC50 of 60 nM. O=C(NCc1cc(-c2ccc(C(F)(F)F)nc2)ncn1)C1C2CC(CC2F)N1S(=O)(=O)c1ccc(F)cc1 (centres unmarked) [Example 51, 5-fluoro-2-(4-fluorophenyl)sulfonyl-N-[[6-[6-(trifluoromethyl)-3-pyridyl]pyrimidin-4-yl]methyl]-2-azabicyclo[2.2.1]heptane-3-carboxamide] gave an IC50 of 52 nM. In the case of C[C@@]1(F)C[C@@H](C(=O)NCc2cc(F)cc(-c3cnc(C(F)(F)F)nc3)c2)N(S(=O)(=O)c2ccc(F)cc2)C1 [Example 52, (2S,4R)-4-fluoro-N-(3-fluoro-5-(2-(trifluoromethyl)pyrimidin-5-yl)benzyl)-1-((4-fluorophenyl)sulfonyl)-4-methylpyrrolidine-2-carboxamide], the IC50 is reported as 16 nM. With O=C(NCc1cc(-c2cnc(C(F)(F)F)nc2)ccn1)[C@@H]1C[C@@H](F)CN1S(=O)(=O)c1ccc(F)cc1 [Example 53, (2S,4R)-4-fluoro-1-(4-fluorophenyl)sulfonyl-N-[[4-[2-(trifluoromethyl)pyrimidin-5-yl]-2-pyridyl]methyl]pyrrolidine-2-carboxamide] the IC50 was 411 nM. For O=C(NCc1cc(-c2cnc(C(F)(F)F)cn2)ccc1F)[C@@H]1C[C@@H](F)CN1S(=O)(=O)c1ccc(F)cc1 [Example 54, (2S,4R)-4-fluoro-N-(2-fluoro-5-(5-(trifluoromethyl)pyrazin-2-yl)benzyl)-1-((4-fluorophenyl)sulfonyl)pyrrolidine-2-carboxamide], the IC50 was 13 nM. In the case of O=C(NCc1cc(-c2ccc(C(F)F)cc2)ncn1)[C@@H]1[C@@H](F)CCN1S(=O)(=O)c1ccc(F)cc1 [Example 55, (2R,3S)—N-[[6-[4-(difluoromethyl)phenyl]pyrimidin-4-yl]methyl]-3-fluoro-1-(4-fluorophenyl)sulfonyl-pyrrolidine-2-carboxamide], the IC50 is reported as 33 nM. O=C(NCc1cc(-c2cnc(C(F)(F)F)nc2)ccc1F)[C@@H]1C[C@@H](F)CN1S(=O)(=O)c1ccc(F)cc1 [Example 56, (2S,4R)-4-fluoro-N-(2-fluoro-5-(2-(trifluoromethyl)pyrimidin-5-yl)benzyl)-1-((4-fluorophenyl)sulfonyl)pyrrolidine-2-carboxamide] was tested, and the IC50 was 11 nM. For O=C(NCc1ccnc(-c2ccc(C(F)(F)F)cc2O)c1)[C@@H]1C[C@@H](F)CN1S(=O)(=O)c1ccc(F)cc1 [Example 57, (2S,4R)-4-fluoro-1-(4-fluorophenyl)sulfonyl-N-[[2-[2-hydroxy-4-(trifluoromethyl)phenyl]-4-pyridyl]methyl]pyrrolidine-2-carboxamide], the IC50 was 5 nM. COc1nn(-c2cnc(C(F)(F)F)cn2)cc1CNC(=O)[C@@H]1C[C@@H](F)CN1S(=O)(=O)c1ccc(F)cc1 [Example 58, (2S,4R)-4-fluoro-1-(4-fluorophenyl)sulfonyl-N-[[3-methoxy-1-[5-(trifluoromethyl)pyrazin-2-yl]pyrazol-4-yl]methyl]pyrrolidine-2-carboxamide] was tested, and the IC50 was 14 nM. Work on O=C(NCc1cc(-c2ccc(C(F)F)c(F)c2)ncn1)[C@@H]1C[C@@H](F)CN1S(=O)(=O)c1ccc(F)cc1 [Example 59, (2S,4R)—N-[[6-[4-(difluoromethyl)-3-fluoro-phenyl]pyrimidin-4-yl]methyl]-4-fluoro-1-(4-fluorophenyl)sulfonyl-pyrrolidine-2-carboxamide] yielded an IC50 of 29 nM. O=C(NCc1cc(Cl)nc(-c2ccc(C(F)F)nc2)c1)[C@@H]1C[C@@H](F)CN1S(=O)(=O)c1ccc(F)cc1 [Example 60, (2S,4R)—N-[[2-chloro-6-[6-(difluoromethyl)-3-pyridyl]-4-pyridyl]methyl]-4-fluoro-1-(4-fluorophenyl)sulfonyl-pyrrolidine-2-carboxamide] gave an IC50 of 55 nM.
